Legend:
Format in all cases: cell-based
Aureobasidium pullulans = experiment: MIC test, 96 well microtiter plate; details: Aureobasidium pullulans, read-out: Minimum Inhibitory Concentration
Protocol: (§1) MIC set up: A 96 well microtiter plate Minimum Inhibitory Concentration (MIC) test was run in broth suitable for the test organism. Serially diluted actives were prepared in sterilized water, and the start-up concentration varied depending on the efficacy range. Inocula prepared in 2× suitable broth was added into each well, and the final concentrations of bacteria were adjusted to approximately 5×10^5.
(§2) Further MIC tests were conducted using different amine compounds in combination with a pyrithione and two different isothiazolinones. The procedures described in Example No. 1 were used.

Staphylococcus aureus = experiment: MIC test, 96 well microtiter plate; details: Staphylococcus aureus, read-out: Minimum Inhibitory Concentration
Protocol: as §1, §2

Aspergillus brasiliensis = experiment: MIC test, 96 well microtiter plate; details: Aspergillus brasiliensis, read-out: Minimum Inhibitory Concentration
Protocol: as §1, §2

Escherichia coli = experiment: MIC test, 96 well microtiter plate; details: Escherichia coli, read-out: Minimum Inhibitory Concentration
Protocol: as §1, §2

Candida albicans = experiment: MIC test, 96 well microtiter plate; details: Candida albicans, read-out: Minimum Inhibitory Concentration
Protocol: as §1, §2

[1] = test system: mixed bacterial inoculum (Pseudomonas aeruginosa, Enterobacter cloacae, Escherichia coli, Acinetobacter calcoaceticus); experiment: Repeated inoculation of standard acrylic paint, streak plate rating
Protocol: In the following experiments, a pyrithione, an isothiazolinone, and a biocide enhancing agent in accordance with the present disclosure were combined with a standard acrylic paint. The concentrations of the pyrithione, the isothiazolinone and the biocide enhancing agent were varied. The pyrithione, the isothiazolinone and the biocide enhancing agent were added alone and in various mixtures to the standard acrylic paint.
The acrylic paint was then inoculated three times using a mixed bacterial inoculum. The bacterial inoculum, which comprised a bacterial suspension in water, contained the following four bacteria in equal proportions.
The samples were streak plated at 24, 48, and 72 hours after inoculation. The streak plates were rated as follows;

## CCCCCCCCCCCC[N+](C)(C)[O-] [CDMA Oxide, cocodimethylamine oxide]
Aureobasidium pullulans
  MIC: 13.9 µg/mL
Staphylococcus aureus
  MIC: 13.9 µg/mL
Aspergillus brasiliensis
  MIC: 17.4 µg/mL
Escherichia coli
  MIC: 557 µg/mL
Candida albicans
  MIC: 13.9 µg/mL
[1]; Set Five, CDMA Oxide 1200 ppm, 1st inoculation 24 h
  streak plate rating: 5 (>45 viable microorganisms Severely contaminated)
[1]; Set Five, CDMA Oxide 1200 ppm, 1st inoculation 48 h
  streak plate rating: 5 (>45 viable microorganisms Severely contaminated)
[1]; Set Five, CDMA Oxide 1200 ppm, 1st inoculation 72 h
  streak plate rating: 5 (>45 viable microorganisms Severely contaminated)
[1]; Set Five, CDMA Oxide 1200 ppm, 2nd inoculation 24 h
  streak plate rating: 5 (>45 viable microorganisms Severely contaminated)
[1]; Set Five, CDMA Oxide 1200 ppm, 2nd inoculation 48 h
  streak plate rating: 5 (>45 viable microorganisms Severely contaminated)
[1]; Set Five, CDMA Oxide 1200 ppm, 2nd inoculation 72 h
  streak plate rating: 5 (>45 viable microorganisms Severely contaminated)
[1]; Set Five, CDMA Oxide 1200 ppm, 3rd inoculation 24 h
  streak plate rating: 5 (>45 viable microorganisms Severely contaminated)
[1]; Set Five, CDMA Oxide 1200 ppm, 3rd inoculation 48 h
  streak plate rating: 5 (>45 viable microorganisms Severely contaminated)
[1]; Set Five, CDMA Oxide 1200 ppm, 3rd inoculation 72 h
  streak plate rating: 5 (>45 viable microorganisms Severely contaminated)
[1]; Set Two, CDMA Oxide alone, ppm not given, 1st inoculation 24 h
  streak plate rating: 5 (>45 viable microorganisms Severely contaminated)
[1]; Set Two, CDMA Oxide alone, ppm not given, 1st inoculation 48 h
  streak plate rating: 5 (>45 viable microorganisms Severely contaminated)
[1]; Set Two, CDMA Oxide alone, ppm not given, 1st inoculation 72 h
  streak plate rating: 5 (>45 viable microorganisms Severely contaminated)
[1]; Set Two, CDMA Oxide alone, ppm not given, 2nd inoculation 24 h
  streak plate rating: 5 (>45 viable microorganisms Severely contaminated)
[1]; Set Two, CDMA Oxide alone, ppm not given, 2nd inoculation 48 h
  streak plate rating: 5 (>45 viable microorganisms Severely contaminated)
[1]; Set Two, CDMA Oxide alone, ppm not given, 2nd inoculation 72 h
  streak plate rating: 5 (>45 viable microorganisms Severely contaminated)
[1]; Set Two, CDMA Oxide alone, ppm not given, 3rd inoculation 24 h
  streak plate rating: 5 (>45 viable microorganisms Severely contaminated)
[1]; Set Two, CDMA Oxide alone, ppm not given, 3rd inoculation 48 h
  streak plate rating: 5 (>45 viable microorganisms Severely contaminated)
[1]; Set Two, CDMA Oxide alone, ppm not given, 3rd inoculation 72 h
  streak plate rating: 5 (>45 viable microorganisms Severely contaminated)

Reference: patent US10721934B2, “Enhanced preservative” (Arch Chemicals, Inc., priority 2013, dated 2020)
